Experimental data reported in US20240398812A1 (Caraway Therapeutics, Inc., priority 2021, published 2024).

Key:
human TRPML1 = human TRPML1 (Homo sapiens, UniProt Q9GZU1); experiment: Fluorescent TRPML1 assay (Fluo4-AM calcium fluorescence, HEK-293 Trex cells); assay type: cell-based
Description: (§1) HEK-293 Trex cells were stably transfected with a construct consisting of the human coding sequence for TRPML1 cloned into the tet-inducible plasmid pCDNA5 T/O. Mutations were introduced into the TRPML1 sequence to facilitate expression on the cell surface (Silvia Vergarajauregui, Rosa Puertollano Traffic. 2006 March; 7 (3): 337-353). Briefly, the cells are cultured in 150 mm round tissue culture dishes containing 20 mL of media. The day before the assay the cells are rinsed with DPBS —Ca—Mg and then treated briefly with Trypsin-EDTA. The Trypsin-EDTA is diluted with growth media, and cells are counted. 38×10^6 cells are re-plated into 150 mm round tissue culture dishes in media containing 0.5 ug/mL doxycycline to induce expression of hTRPML1.
(§2) The day of the experiment cells are lifted from the plates as above and collected by centrifugation. The cells are then suspended in dye loading buffer consisting of Ringer's solution supplemented with 0.1% Pluronic Acid and 1 micromolar Fluo4-AM dye. Cells are loaded for ˜60 minutes in the dark with occasional mixing. The cells are collected by centrifugation, the loading media aspirated, and the cells resuspended in 25 mL Ringer's solution and incubated ˜60 minutes in the dark. The cells are again collected by centrifugation, rinsed in Ringer's Solution and resuspended to 0.2×10^6 cells/mL in modified Ringer's solution containing 10 mM calcium.
(§3) Compounds are dissolved to a concentration of 10 millimolar with DMSO. Compound plates are created by dispensing compounds into 384 well black wall clear bottom plates (Greiner 781091). Positive and negative controls are included on each plate. Typically, different amounts of each compound are tested ranging from 100 nanoMoles (20 micromolar final concentration) decreasing in half-log steps to 31 picoMoles (6 nanomolar final concentration). Each concentration is typically tested in triplicate.
(§4) 50 microliters of dye-loaded cells are dispensed into each well of the compound assay plate created above. The fluorescence in each well is then determined with an excitation wavelength of 480 nm and an emission wavelength of 540 nm using either a Molecular Devices SpectraMax multimode plate reader or a Hamamatsu FDSS/uCell plate imager.
(§5) The resulting fluorescence for each well is exported as an ascii file and loaded into our LIMS for analysis. The percent activity of each compound at each concentration is determined by comparison to the positive and negative control wells included in each plate.
(§6) EC50 values were calculated using a non-linear regression of Prism. In the table, “A” indicates an EC50 of less than 100 nM, “B” indicates an EC50 range from 100 nM to 500 nM; “C” indicates an EC50 range from 500 nM to 2 μM; and “D” indicates an EC50 greater than 2 μM.

TRPML3 = target: T1, TRPML3 (Homo sapiens, UniProt Q8TDD5); experiment: Fluorescent TRPML3 assay (as for TRPML1); assay type: cell-based
T1 construct: expressed in transfected cells
T1 sequence (Q8TDD5 1-553): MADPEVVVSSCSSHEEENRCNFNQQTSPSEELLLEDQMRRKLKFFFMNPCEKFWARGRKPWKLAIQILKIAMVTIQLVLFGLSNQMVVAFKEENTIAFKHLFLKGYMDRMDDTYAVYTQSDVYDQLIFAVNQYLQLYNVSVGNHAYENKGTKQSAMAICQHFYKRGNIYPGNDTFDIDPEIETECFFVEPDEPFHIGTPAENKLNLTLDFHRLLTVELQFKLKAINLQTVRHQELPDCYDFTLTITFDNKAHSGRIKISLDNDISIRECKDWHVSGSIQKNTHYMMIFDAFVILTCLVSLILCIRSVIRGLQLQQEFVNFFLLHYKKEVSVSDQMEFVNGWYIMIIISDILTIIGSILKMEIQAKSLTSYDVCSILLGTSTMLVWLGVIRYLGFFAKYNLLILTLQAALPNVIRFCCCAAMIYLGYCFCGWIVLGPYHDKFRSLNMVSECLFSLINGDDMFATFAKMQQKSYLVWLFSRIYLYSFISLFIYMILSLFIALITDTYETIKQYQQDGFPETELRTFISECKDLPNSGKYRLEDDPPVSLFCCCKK
Description: as §1, §2, §3, §4, §5
Assays for TRPML2 and TRPML3 were performed as above for TRPML1, by substituting the appropriate TRPML2 or TRPML3 subtype for the TRPML1.
as §6

Sequence of human TRPML1 (Q9GZU1 whole entry L15A/L16A/L577A/L578A, form open): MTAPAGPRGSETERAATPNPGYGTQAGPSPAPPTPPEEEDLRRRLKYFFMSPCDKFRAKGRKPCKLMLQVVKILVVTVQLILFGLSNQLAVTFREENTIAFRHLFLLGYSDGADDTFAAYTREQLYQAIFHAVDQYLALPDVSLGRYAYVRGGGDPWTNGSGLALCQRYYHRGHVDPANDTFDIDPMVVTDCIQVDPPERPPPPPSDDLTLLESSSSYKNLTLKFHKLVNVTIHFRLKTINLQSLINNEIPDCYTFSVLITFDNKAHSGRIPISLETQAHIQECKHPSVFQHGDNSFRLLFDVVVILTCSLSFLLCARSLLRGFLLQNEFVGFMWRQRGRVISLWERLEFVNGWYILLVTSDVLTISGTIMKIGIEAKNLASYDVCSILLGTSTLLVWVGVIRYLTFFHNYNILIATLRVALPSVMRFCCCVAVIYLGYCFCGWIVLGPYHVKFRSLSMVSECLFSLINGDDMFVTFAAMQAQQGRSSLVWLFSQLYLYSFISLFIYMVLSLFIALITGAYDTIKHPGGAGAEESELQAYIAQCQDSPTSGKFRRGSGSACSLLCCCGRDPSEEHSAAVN

| EC50 (human TRPML1; Table 3, compounds 201-283) | EC50 (TRPML3; Table 3, compounds 201-283) | EC50 (human TRPML1; Table 3, compounds 101-177) | EC50 (TRPML3; Table 3, compounds 101-177) | SMILES |
| --- | --- | --- | --- | --- |
| 100 to 500 nM | 100 to 500 nM | – | – | CC(C)C(=O)N1CCN(c2ncnc3c(-c4cc(C#N)ccn4)cn(-c4ccccc4F)c23)[C@@H](C)C1 [Compound 212, (S)-2-(5-(2-fluorophenyl)-4-(4-isobutyryl-2-methylpiperazin-1-yl)-5H-pyrrolo[3,2-d]pyrimidin-7-yl)isonicotinonitrile] |
| – | – | < 100 nM | 100 to 500 nM | C[C@H]1CN(C(=O)C(C)(C)O)CCN1c1ncnc2c1c(-c1ccccc1F)cn2-c1cc(C#N)ccn1 [Compound 159, (S)-2-(5-(2-fluorophenyl)-4-(4-(2-hydroxy-2-methylpropanoyl)-2-methylpiperazin-1-yl)-7H-pyrrolo[2,3-d]pyrimidin-7-yl)isonicotinonitrile] |
| – | – | < 100 nM | 100 to 500 nM | C[C@@H]1CN(c2ncnc3c2c(-c2ccccc2F)cn3-c2cc(F)ccn2)[C@@H](C)CN1C(=O)C(C)(C)O [Compound 169, 1-((2R,5S)-4-(5-(2-fluorophenyl)-7-(4-fluoropyridin-2-yl)-7H-pyrrolo[2,3-d]pyrimidin-4-yl)-2,5-dimethylpiperazin-1-yl)-2-hydroxy-2-methylpropan-1-one] |
| – | – | 500 to 2000 nM | 500 to 2000 nM | CC(C)C(=O)N1CCN(c2ncnc3c2c(-c2ccccc2F)cn3-c2nccc(C#N)n2)[C@@H](C)C1 [Compound 156, (S)-2-(5-(2-fluorophenyl)-4-(4-isobutyryl-2-methylpiperazin-1-yl)-7H-pyrrolo[2,3-d]pyrimidin-7-yl)pyrimidine-4-carbonitrile] |
| – | – | 100 to 500 nM | < 100 nM | CC(C)C(=O)N1CCN(c2ncnc3c2c(-c2ccccc2F)cn3-c2cc(C#N)ccn2)[C@H](C)C1 [Compound 138, (R)-2-(5-(2-fluorophenyl)-4-(4-isobutyryl-2-methylpiperazin-1-yl)-7H-pyrrolo[2,3-d]pyrimidin-7-yl)isonicotinonitrile] |
| < 100 nM | 100 to 500 nM | – | – | C[C@@H]1CN(c2ncnc3c2c(C(F)(F)F)cn3-c2cc(F)cc(F)c2)[C@@H](C)CN1C(=O)C(C)(C)C [Compound 225, 1-((2R,5S)-4-(7-(3,5-difluorophenyl)-5-(trifluoromethyl)-7H-pyrrolo[2,3-d]pyrimidin-4-yl)-2,5-dimethylpiperazin-1-yl)-2,2-dimethylpropan-1-one] |
| – | – | < 100 nM | < 100 nM | CC(C)C(=O)N1CCN(c2ncnc3c2c(-c2ccccc2)cn3-c2cc(C#N)ccn2)C[C@H]1C [Compound 119, (R)-2-(4-(4-isobutyryl-3-methylpiperazin-1-yl)-5-phenyl-7H-pyrrolo[2,3-d]pyrimidin-7-yl)isonicotinonitrile] |
| – | – | 100 to 500 nM | 100 to 500 nM | C[C@H]1CN(C(=O)C2CC2)CCN1c1ncnc2c1c(-c1ccccc1)cn2-c1cc(C#N)ccn1 [Compound 123, (S)-2-(4-(4-(cyclopropanecarbonyl)-2-methylpiperazin-1-yl)-5-phenyl-7H-pyrrolo[2,3-d]pyrimidin-7-yl)isonicotinonitrile] |
| < 100 nM | < 100 nM | – | – | C[C@H]1CN(C(=O)C(C)(C)C)CCN1c1nccc2c1c(N1CCC1)cn2-c1cccc(F)c1 [Compound 227, (S)-1-(4-(3-(azetidin-1-yl)-1-(3-fluorophenyl)-1H-pyrrolo[3,2-c]pyridin-4-yl)-3-methylpiperazin-1-yl)-2,2-dimethylpropan-1-one] |
| – | – | < 100 nM | 100 to 500 nM | CC(F)C(=O)N1CCN(c2ncnc3c2c(-c2ccccc2F)cn3-c2cc(C#N)ccn2)[C@@H](C)C1 (stereo partly drawn) [Compound 113, 2-(5-(2-fluorophenyl)-4-((2S)-4-(2-fluoropropanoyl)-2-methylpiperazin-1-yl)-7H-pyrrolo[2,3-d]pyrimidin-7-yl)isonicotinonitrile] |
| – | – | 100 to 500 nM | 100 to 500 nM | N#Cc1ccnc(-n2cc(-c3ccccc3F)c3c(N4CCN(C(=O)C5CC5)CC4)ncnc32)c1 [Compound 110, 2-(4-(4-(cyclopropanecarbonyl)piperazin-1-yl)-5-(2-fluorophenyl)-7H-pyrrolo[2,3-d]pyrimidin-7-yl)isonicotinonitrile] |
| – | – | < 100 nM | < 100 nM | C[C@H]1CN(C(=O)C(C)(C)F)CCN1c1ncnc2c1c(-c1ccccc1F)cn2-c1cc(C#N)ccn1 [Compound 125, (S)-2-(4-(4-(2-fluoro-2-methylpropanoyl)-2-methylpiperazin-1-yl)-5-(2-fluorophenyl)-7H-pyrrolo[2,3-d]pyrimidin-7-yl)isonicotinonitrile] |
| < 100 nM | < 100 nM | – | – | CC(C)C(=O)N1CCN(c2ncnc3c2c(N2CCC2)cn3-c2cc(C#N)ccn2)C[C@H]1C [Compound 273, (R)-2-(5-(azetidin-1-yl)-4-(4-isobutyryl-3-methylpiperazin-1-yl)-7H-pyrrolo[2,3-d]pyrimidin-7-yl)isonicotinonitrile] |
| – | – | 100 to 500 nM | 100 to 500 nM | C[C@@H]1CN(c2ncnc3c2c(-c2ccccc2)cn3-c2cc(C#N)ccn2)CCN1C(=O)C1CC1 [Compound 124, (R)-2-(4-(4-(cyclopropanecarbonyl)-3-methylpiperazin-1-yl)-5-phenyl-7H-pyrrolo[2,3-d]pyrimidin-7-yl)isonicotinonitrile] |
| – | – | < 100 nM | 100 to 500 nM | C[C@H]1CN(C(=O)CCC(F)(F)F)CCN1c1ncnc2c1c(-c1ccccc1F)cn2-c1cc(C#N)ccn1 [Compound 135, (S)-2-(5-(2-fluorophenyl)-4-(2-methyl-4-(4,4,4-trifluorobutanoyl)piperazin-1-yl)-7H-pyrrolo[2,3-d]pyrimidin-7-yl)isonicotinonitrile] |
| – | – | 500 to 2000 nM | > 2000 nM | Cc1nccnc1-c1cn(-c2cc(C#N)ccn2)c2ncnc(N3C[C@@H](C)N(C(=O)C(C)C)C[C@@H]3C)c12 [Compound 172, 2-(4-((2S,5R)-4-isobutyryl-2,5-dimethylpiperazin-1-yl)-5-(3-methylpyrazin-2-yl)-7H-pyrrolo[2,3-d]pyrimidin-7-yl)isonicotinonitrile] |
| < 100 nM | < 100 nM | – | – | C[C@@H]1CN(c2nccc3c2c(N2CCC2)cn3-c2cccc(F)c2)[C@@H](C)CN1C(=O)C(C)(C)C [Compound 226, 1-((2R,5S)-4-(3-(azetidin-1-yl)-1-(3-fluorophenyl)-1H-pyrrolo[3,2-c]pyridin-4-yl)-2,5-dimethylpiperazin-1-yl)-2,2-dimethylpropan-1-one] |
| – | – | 100 to 500 nM | < 100 nM | CC(C)C(=O)N1CCN(c2ncnc3c2c(-c2ccccc2F)cn3-c2cc(C#N)ccn2)CC1 [Compound 106, 2-(5-(2-fluorophenyl)-4-(4-isobutyrylpiperazin-1-yl)-7H-pyrrolo[2,3-d]pyrimidin-7-yl)isonicotinonitrile] |
| 500 to 2000 nM | 500 to 2000 nM | – | – | C[C@@H]1CN(c2ncnc3c2c(C2CCC2)cn3-c2cccc(Cl)c2)[C@@H](C)CN1C(=O)C1(F)CC1 [Compound 254, ((2R,5S)-4-(7-(3-chlorophenyl)-5-cyclobutyl-7H-pyrrolo[2,3-d]pyrimidin-4-yl)-2,5-dimethylpiperazin-1-yl)(1-fluorocyclopropyl)methanone] |
| – | – | 100 to 500 nM | < 100 nM | CC(C)C(=O)N1CCN(c2ncnc3c2c(-c2ccccc2F)cn3-c2cc(C#N)ccn2)CC12CC2 [Compound 145, 2-(5-(2-fluorophenyl)-4-(4-isobutyryl-4,7-diazaspiro[2.5]octan-7-yl)-7H-pyrrolo[2,3-d]pyrimidin-7-yl)isonicotinonitrile] |
